Experimental data taken from PMC4367188 (ACS Chemical Neuroscience, 2015).
Substitutions are numbered along the chain they refer to. Names and notes keep the numbering of the source.

Assays:
WT hCHT = molecular target: T1, WT hCHT (Homo sapiens, UniProt Q9GZV3); experiment: cell-surface biotinylation, CHT surface expression in WT hCHT HEK 293 cells; assay type: cell-based
T1 sequence (Q9GZV3 1-580): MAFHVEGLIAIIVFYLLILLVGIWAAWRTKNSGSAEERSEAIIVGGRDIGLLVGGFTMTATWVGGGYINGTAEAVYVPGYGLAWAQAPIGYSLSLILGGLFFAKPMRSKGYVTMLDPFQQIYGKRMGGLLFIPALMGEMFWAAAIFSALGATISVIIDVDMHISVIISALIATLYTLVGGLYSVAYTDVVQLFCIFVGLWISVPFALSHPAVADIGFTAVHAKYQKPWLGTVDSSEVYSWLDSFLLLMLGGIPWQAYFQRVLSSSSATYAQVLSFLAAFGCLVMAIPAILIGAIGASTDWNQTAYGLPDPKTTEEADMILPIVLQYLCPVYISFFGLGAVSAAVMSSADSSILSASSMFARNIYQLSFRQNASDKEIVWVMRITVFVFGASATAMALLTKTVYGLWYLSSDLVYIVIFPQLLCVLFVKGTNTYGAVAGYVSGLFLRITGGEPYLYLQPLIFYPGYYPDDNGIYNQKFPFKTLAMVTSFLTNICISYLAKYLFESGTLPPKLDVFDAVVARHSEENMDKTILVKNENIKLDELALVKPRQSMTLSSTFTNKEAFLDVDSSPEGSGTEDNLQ

hCHT = molecular target: T2, hCHT (Homo sapiens, UniProt Q9GZV3); experiment: [3H]HC-3 binding to membranes from HEK hCHT cells
T2 sequence (Q9GZV3 1-580): T1 sequence (Q9GZV3 1-580)

[1] = substrate: C[N+](C)(C)CCO; experiment: cells, lysate or membranes; details: other: hCHT LV-AA transfected cells; no inhibitor; 37.0 °C

Molecule: C[N+]1(C)CCOC(O)(c2ccc(-c3ccc(C4(O)C[N+](C)(C)CCO4)cc3)cc2)C1 (stereo not shown) [HC-3, hemicholinium-3, reference compound]
- increase in steady-state hCHT surface expression (WT hCHT; 5 μM, 15 min incubation): 76 ± 16 % of control
- Kd (hCHT): 8.5 ± 1.1 nM

Molecule: C[N+](C)(C)CCO [choline]
- effect of choline on CHT surface expression (WT hCHT; choline (10 μM), 15 min): no evidence for the previously reported choline-dependent reductions

B1: hCHT LV-AA (Homo sapiens; L531A/V532A) (protein)
chain: T1 sequence (Q9GZV3 1-580) with L531A, V532A
- Km [1]: 2.5 ± 0.4 µM
